{"source": "patent US10253081B2", "about": "“Glucagon analogues” (Zealand Pharma A/S, priority 2012, dated 2019)", "key": {"[1]": {"target": "T1, human glucagon receptor (Glucagon-R) (Homo sapiens, UniProt P47871)", "T1 construct": "expressed in transfected cells", "T1 sequence (P47871 26-477)": "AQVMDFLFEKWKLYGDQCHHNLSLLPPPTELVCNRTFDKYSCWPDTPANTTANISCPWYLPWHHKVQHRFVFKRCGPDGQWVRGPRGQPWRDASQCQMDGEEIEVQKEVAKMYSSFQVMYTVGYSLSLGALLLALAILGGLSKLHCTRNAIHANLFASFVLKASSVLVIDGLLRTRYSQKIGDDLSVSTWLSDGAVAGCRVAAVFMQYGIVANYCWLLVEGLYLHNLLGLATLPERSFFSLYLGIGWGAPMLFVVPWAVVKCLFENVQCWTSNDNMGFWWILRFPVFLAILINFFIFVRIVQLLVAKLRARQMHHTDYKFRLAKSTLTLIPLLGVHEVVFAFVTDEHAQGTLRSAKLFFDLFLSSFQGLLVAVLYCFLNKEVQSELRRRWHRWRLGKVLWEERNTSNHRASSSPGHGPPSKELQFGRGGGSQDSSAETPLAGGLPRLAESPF", "test": "Glucagon receptor efficacy assay (cAMP AlphaScreen, CHO cells)", "type": "cell-based", "settings": "Table 1A; CHO cells expressing human Glucagon-R, cAMP; read-out: EC50 hGCGR CHO-K1", "summary_of_the_method": "(§1)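 Stably transfected CHO clones expressing human GLP-1R or glucagon receptor were treated with increasing peptide concentrations for 15 min at room temperature in KRBH containing 0.1 mM IBMX. After lysis, cAMP was quantified by AlphaScreen; EC50 and efficacy relative to GLP-1 or glucagon reference came from curve fitting.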"}, "[2]": {"target": "T2, human glucagon-like peptide 1 receptor (GLP-1R) (Homo sapiens, UniProt P43220)", "T2 construct": "expressed in transfected cells", "T2 sequence (P43220 24-463)": "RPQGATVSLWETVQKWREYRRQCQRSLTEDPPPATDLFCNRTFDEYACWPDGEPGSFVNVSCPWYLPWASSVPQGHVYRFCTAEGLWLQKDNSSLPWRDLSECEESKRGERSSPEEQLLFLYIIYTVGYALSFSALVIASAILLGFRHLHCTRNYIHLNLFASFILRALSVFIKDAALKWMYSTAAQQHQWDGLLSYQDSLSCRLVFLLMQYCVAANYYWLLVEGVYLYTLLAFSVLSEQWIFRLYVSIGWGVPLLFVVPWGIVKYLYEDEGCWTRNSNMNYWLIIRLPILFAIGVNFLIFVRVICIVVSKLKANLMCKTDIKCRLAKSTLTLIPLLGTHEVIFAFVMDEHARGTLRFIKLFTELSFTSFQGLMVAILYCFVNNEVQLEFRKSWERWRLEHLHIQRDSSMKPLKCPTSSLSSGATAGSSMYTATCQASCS", "test": "GLP-1 receptor efficacy assay (cAMP AlphaScreen, CHO cells)", "type": "cell-based", "settings": "Table 1A", "summary_of_the_method": "as §1"}, "[3]": {"target": "T3, endogenous GLP-1 receptors (Mus musculus, UniProt O35659)", "T3 construct": "Agonistic activity of the test compounds on endogenous GLP-1 receptors; endogenous in cells", "T3 sequence (O35659 22-463)": "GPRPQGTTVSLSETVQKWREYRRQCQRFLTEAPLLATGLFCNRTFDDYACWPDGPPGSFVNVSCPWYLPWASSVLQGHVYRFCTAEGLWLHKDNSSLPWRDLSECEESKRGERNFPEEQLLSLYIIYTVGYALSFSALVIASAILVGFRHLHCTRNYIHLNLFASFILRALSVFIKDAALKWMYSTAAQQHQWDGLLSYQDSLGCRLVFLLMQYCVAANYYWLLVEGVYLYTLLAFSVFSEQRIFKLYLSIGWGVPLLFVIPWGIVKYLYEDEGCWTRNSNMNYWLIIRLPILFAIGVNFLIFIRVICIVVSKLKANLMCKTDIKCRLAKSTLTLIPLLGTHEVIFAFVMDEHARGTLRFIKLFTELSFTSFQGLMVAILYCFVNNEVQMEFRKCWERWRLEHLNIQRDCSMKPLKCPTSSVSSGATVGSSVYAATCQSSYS", "test": "Agonistic activity on endogenous GLP-1 receptor (cAMP, murine insulinoma cell line)", "type": "cell-based", "settings": "intracellular cAMP, 15 minutes at 26° C.; read-out: EC50 GLP-1R (murine insulinoma cells)", "summary_of_the_method": "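Murine insulinoma cells were exposed 15 min at 26° C in KRBH with 0.1% DMSO to compound or GLP-1 ([…]), then cAMP was measured by AlphaScreen against a standard curve, in quadruplicate. pEC50 came from curve fits; % CTL was normalised to the maximal GLP-1 cAMP response.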"}, "[4]": {"test": "Pharmacokinetic parameters after subcutaneous and intravenous administration to mice", "type": "in vivo", "settings": "male, mouse, plasma, 20 nmol/kg, C57Bl/6J mice; for half-life: read-out: Terminal half life (converted)", "protocol": "Pharmacokinetic parameters of the test compounds were determined after subcutaneous and intravenous administration to C57Bl/6J mice.\n8 week old male C57Bl/6J mice were obtained from Taconic (Denmark) weighing approximately 20-25 g at time of arrival at the test facility. The mice were caged in European standard cages type III with light cycle of 12-hour dark and 12-hour light (lights on 06.00). Both diet, Altromin 1324 (Altromin, Germany), and water was administered ad libitum during the whole experimental period. The 8-11 week animals were imported to the laboratory at least 7 days before the start up of the experimental procedure in order to assure proper acclimatization. After sampling the mice were euthanized by cervical dislocation.\nThe compounds were first dissolved in 0.096% aqueous ammonia to a nominal concentration of 2 mg/ml, and then diluted to the desired dosing strength (4 μM) in sterile PBS containing 25 mM phosphate buffer, pH 7.4. Subcutaneous and intravenous injections corresponding to 20 nmol/kg were given. The GLP-1-glucagon dual agonists were administered for subcutaneous dosing in the neck region and via a lateral tail vein for intravenous dosing.\nBlood samples (250 μl) were collected from the periorbital plexus at time points 0.5, 2, 4, 6, 12, 16, 20, 24 h for subcutaneous and 10, 30 min, 3, 6, 12, 18, 24 h for intravenous administration into ice-chilled K3EDTA tubes and centrifuged for 5 minutes at 4° C. within 20 minutes of sampling. Plasma (>100 μl) was separated to ice-chilled Micronic tubes, immediately frozen, and kept at −70° C. until analysed for plasma concentration for the respective GLP-1-glucagon compound using LC-MS/MS. Individual plasma concentration-time profiles were analysed by a non-compartmental approach in WinNonLin v6.3 (Pharsight inc, Mountain View, Calif., USA), and the resulting pharmacokinetic parameters determined."}, "[5]": {"test": "Oral glucose tolerance test (OGTT)", "type": "in vivo, C57BL/6J mice", "settings": "blood glucose AUC 0-120 min, 10 nmol/kg s.c. 4 h before oral glucose 2 g/kg", "protocol": "Male C57BL/6J mice were fasted for 10 h before they received an oral glucose bolus of 2 g/kg body weight. Peptides were dissolved in saline buffered with 25 mM phosphate and administered at a dose of 10 nmol/kg body weight by subcutaneous injection 4 h before the glucose bolus. Control animals received a vehicle injection only. Group size was 7 animals per group. A pre-dose and a pre-glucose (0 min) blood sample were obtained by tail bleeding and blood glucose was measured with a glucometer. Additional samples of tail blood for measuring blood glucose were obtained 15 min, 30 min, 60 min, 90 min and 120 min after the glucose challenge. […] Calculation of AUC was done by the trapezoidal rule without baseline correction. The data are presented as mean±S.E.M. Statistical comparisons were conducted by one-way ANOVA followed by Tukey's post test. Vehicle alone was used as a control."}}, "note": "Read-outs that look alike come from different tables or passages of the source. *1 amine or outer side, *2 acyl side, *3 side chain or, on linkers, in order; H or OH if unused. Where a SMILES comes first, the peptide text is derived from it. Side-chain parts run from the residue outwards. [ ]: non-standard residue; d: D form. The star is where a group is joined. γGlu = O=C(O)[C@H](CCC(=O)[*:2])N[*:1]; Palmitoyl = CCCCCCCCCCCCCCCC(=O)*; Aib = CC(C)(N)C(=O)O", "data": [{"compound": "CCCCCCCCCCCCCCCC(=O)N[C@@H](CCC(=O)NCCCC[C@H](NC(=O)[C@H](CCC(=O)O)NC(=O)[C@H](CC(=O)O)NC(=O)[C@H](CC(C)C)NC(=O)[C@H](Cc1ccc(O)cc1)NC(=O)[C@H](CCCCN)NC(=O)[C@H](CO)NC(=O)[C@H](Cc1ccc(O)cc1)NC(=O)[C@H](CC(=O)O)NC(=O)[C@H](CO)NC(=O)[C@@H](NC(=O)[C@H](Cc1ccccc1)NC(=O)[C@@H](NC(=O)CNC(=O)[C@H](CCC(N)=O)NC(=O)C(C)(C)NC(=O)[C@@H](N)Cc1c[nH]cn1)[C@@H](C)O)[C@@H](C)O)C(=O)N[C@@H](CCCNC(=N)N)C(=O)N[C@@H](C)C(=O)N[C@@H](CCCCN)C(=O)N[C@@H](CC(=O)O)C(=O)N[C@@H](Cc1ccccc1)C(=O)N[C@H](C(=O)N[C@@H](CCC(=O)O)C(=O)N[C@@H](Cc1c[nH]c2ccccc12)C(=O)N[C@@H](CC(C)C)C(=O)N[C@@H](CC(C)C)C(=O)N[C@@H](CO)C(=O)O)[C@@H](C)CC)C(=O)O", "note": "[Compound 11, H-H-Aib-QGTFTSDYSKYLDE-K(Hexadecanoyl-isoGlu)-RAKDFIEWLLS-OH] (H-H[Aib]QGTFTSDYSKYLDEK([γGlu-Palmitoyl])RAKDFIEWLLS-OH)", "values": [{"measurement": "EC50", "setting": "[1]", "value": 0.61, "unit": "nM"}, {"measurement": "EC50", "setting": "[2]; CHO cells expressing human GLP-1-R, cAMP, read-out: EC50 hGLP-1R CHO-K1", "value": 0.64, "unit": "nM"}, {"measurement": "Ratio GLP-1/Glucagon", "setting": "[2]; EC50 [GLP-1R]/EC50 [Glucagon-R]", "value": 1.05}, {"measurement": "EC50", "setting": "[3]", "value": 1.01, "unit": "nM"}, {"measurement": "clearance", "setting": "[4]; IV", "value": 0.157, "unit": "mL/min/kg"}, {"measurement": "half-life", "setting": "[4]; IV", "value": 3.9, "unit": "h"}, {"measurement": "Tmax", "setting": "[4]; SC", "value": 4, "unit": "h"}, {"measurement": "bioavailability", "setting": "[4]; SC", "value": 64, "unit": "%"}, {"measurement": "MRT", "setting": "[4]; SC, read-out: Mean Residence Time", "value": 12.5, "unit": "h"}, {"measurement": "half-life", "setting": "[4]; SC", "value": 5, "unit": "h"}, {"measurement": "AUC (% Ctrl)", "setting": "[5]", "value": 61, "unit": "% Ctrl"}]}]}
